Test results reported in the NIST ThermoML archive (doi:10.1021/je100765j).

Assay: refractive index (Na D-line) (dimensionless); xn = mol fraction of the nth substance listed
Conditions: 101 kPa, Liquid, Standard Abbe refractometry

CC(C)(C)Cl [2-chloro-2-methylpropane] + CC(C)OC(C)C
refractive index
Conditions | 283.15 K | 288.15 K | 293.15 K | 298.15 K | 303.15 K | 308.15 K | 313.15 K
x1 = 0.049 | 1.37426 | 1.37152 | 1.36878 | 1.36591 | 1.36307 | 1.36021 | 1.35731
x1 = 0.0996 | 1.37498 | 1.37223 | 1.36948 | 1.36661 | 1.36376 | 1.36089 | 1.35799
x1 = 0.1991 | 1.37645 | 1.37368 | 1.37091 | 1.36803 | 1.36516 | 1.36228 | 1.35936
x1 = 0.3212 | 1.37834 | 1.37555 | 1.37275 | 1.36986 | 1.36697 | 1.36407 | 1.36114
x1 = 0.4189 | 1.37994 | 1.37712 | 1.37431 | 1.3714 | 1.3685 | 1.36559 | 1.36263
x1 = 0.5148 | 1.38157 | 1.37874 | 1.3759 | 1.37299 | 1.37006 | 1.36713 | 1.36416
x1 = 0.6213 | 1.38348 | 1.38063 | 1.37775 | 1.37483 | 1.37189 | 1.36894 | 1.36595
x1 = 0.7152 | 1.38524 | 1.38237 | 1.37947 | 1.37654 | 1.37357 | 1.37061 | 1.3676
x1 = 0.8138 | 1.38719 | 1.3843 | 1.38137 | 1.37843 | 1.37543 | 1.37245 | 1.36942
x1 = 0.9079 | 1.38915 | 1.38623 | 1.38327 | 1.38031 | 1.3773 | 1.3743 | 1.37125
x1 = 0.9552 | 1.39016 | 1.38723 | 1.38426 | 1.3813 | 1.37827 | 1.37526 | 1.3722

CCCCCl [1-chlorobutane] + CC(C)OC(C)C
refractive index
Conditions | 283.15 K | 288.15 K | 293.15 K | 298.15 K | 303.15 K | 308.15 K | 313.15 K
x1 = 0.0466 | 1.37486 | 1.37213 | 1.36941 | 1.36656 | 1.36373 | 1.36088 | 1.35801
x1 = 0.0991 | 1.37637 | 1.37364 | 1.37092 | 1.36807 | 1.36525 | 1.3624 | 1.35953
x1 = 0.1918 | 1.37915 | 1.37643 | 1.37372 | 1.3709 | 1.36808 | 1.36524 | 1.3624
x1 = 0.32 | 1.38331 | 1.38059 | 1.37788 | 1.37509 | 1.37227 | 1.36944 | 1.36662
x1 = 0.4199 | 1.38643 | 1.38374 | 1.38104 | 1.37827 | 1.37544 | 1.37262 | 1.36983
x1 = 0.516 | 1.38968 | 1.38698 | 1.38428 | 1.38153 | 1.37872 | 1.37592 | 1.37315
x1 = 0.623 | 1.39338 | 1.39068 | 1.38799 | 1.38527 | 1.38246 | 1.37967 | 1.37693
x1 = 0.7154 | 1.39669 | 1.39399 | 1.3913 | 1.38859 | 1.3858 | 1.38301 | 1.38028
x1 = 0.8157 | 1.40037 | 1.39768 | 1.39499 | 1.39231 | 1.38954 | 1.38677 | 1.38407
x1 = 0.9098 | 1.40395 | 1.40125 | 1.39856 | 1.39594 | 1.39315 | 1.3904 | 1.38773
x1 = 0.9559 | 1.40572 | 1.40303 | 1.40034 | 1.3977 | 1.39493 | 1.39216 | 1.38952

CCC(C)Cl (stereo not drawn) [2-chlorobutane] + CC(C)OC(C)C
refractive index
Conditions | 283.15 K | 288.15 K | 293.15 K | 298.15 K | 303.15 K | 308.15 K | 313.15 K
x1 = 0.0519 | 1.37477 | 1.37203 | 1.36931 | 1.36644 | 1.36361 | 1.36077 | 1.35788
x1 = 0.0988 | 1.37587 | 1.37314 | 1.37041 | 1.36756 | 1.36473 | 1.36189 | 1.359
x1 = 0.2006 | 1.37839 | 1.37566 | 1.37294 | 1.37009 | 1.36727 | 1.36443 | 1.36155
x1 = 0.3211 | 1.38155 | 1.37883 | 1.3761 | 1.37326 | 1.37044 | 1.3676 | 1.36473
x1 = 0.4201 | 1.38427 | 1.38154 | 1.37882 | 1.37599 | 1.37317 | 1.37033 | 1.36746
x1 = 0.532 | 1.38745 | 1.38472 | 1.38199 | 1.37917 | 1.37636 | 1.37353 | 1.37067
x1 = 0.6244 | 1.39016 | 1.38743 | 1.3847 | 1.38189 | 1.37908 | 1.37626 | 1.3734
x1 = 0.726 | 1.39324 | 1.39051 | 1.38778 | 1.38498 | 1.38218 | 1.37936 | 1.37651
x1 = 0.8163 | 1.39608 | 1.39336 | 1.39063 | 1.38784 | 1.38505 | 1.38224 | 1.3794
x1 = 0.8817 | 1.39819 | 1.39548 | 1.39275 | 1.38997 | 1.38719 | 1.38438 | 1.38154
x1 = 0.9634 | 1.40097 | 1.39825 | 1.39552 | 1.39276 | 1.38997 | 1.38716 | 1.38434

CC(C)CCl [1-chloro-2-methylpropane] + CC(C)OC(C)C
refractive index
Conditions | 283.15 K | 288.15 K | 293.15 K | 298.15 K | 303.15 K | 308.15 K | 313.15 K
x1 = 0.0549 | 1.37495 | 1.37221 | 1.36949 | 1.36663 | 1.36379 | 1.36095 | 1.35806
x1 = 0.091 | 1.3759 | 1.37316 | 1.37043 | 1.36757 | 1.36474 | 1.36188 | 1.359
x1 = 0.1977 | 1.37869 | 1.37595 | 1.37322 | 1.37038 | 1.36754 | 1.36469 | 1.36182
x1 = 0.2934 | 1.38128 | 1.37855 | 1.37581 | 1.37298 | 1.37015 | 1.3673 | 1.36444
x1 = 0.3911 | 1.38404 | 1.38131 | 1.37857 | 1.37575 | 1.37292 | 1.37008 | 1.36723
x1 = 0.5137 | 1.38762 | 1.38488 | 1.38213 | 1.37932 | 1.37649 | 1.37365 | 1.37081
x1 = 0.6034 | 1.39034 | 1.3876 | 1.38484 | 1.38205 | 1.37922 | 1.37638 | 1.37354
x1 = 0.6769 | 1.39263 | 1.38989 | 1.38713 | 1.38435 | 1.38152 | 1.37868 | 1.37585
x1 = 0.8059 | 1.3968 | 1.39405 | 1.39129 | 1.38852 | 1.38568 | 1.38285 | 1.38003
x1 = 0.9111 | 1.40038 | 1.39764 | 1.39487 | 1.39212 | 1.38928 | 1.38645 | 1.38364
x1 = 0.9646 | 1.40226 | 1.39951 | 1.39674 | 1.394 | 1.39116 | 1.38833 | 1.38553
